Experimental data reported in patent publication US5814646A, “Inhibitors of amyloid beta-protein production” (Eli Lilly and Company, priority 1995, dated 1998).

System: Aβ production in 293 751 SWE and CHO 751 SWE cells (transfected with APP-751 Swedish mutation)
Assay: Aβ production inhibition activity in cells (Aβ ELISA of conditioned media, normalized for cytotoxicity by MTT)
Type: cell-based
Conditions: 2.5 μg/ml
Procedure: Two cell lines (human kidney cell line 293 and Chinese hamster ovary cell line CHO) were stably transfected with the gene for APP-751 containing the double mutation Lys651 -Met652 to Asn651 -Leu652 (APP-751 numbering) commonly called the Swedish mutation using the method described in Citron et al., (1992) Nature 360:672-674. The transfected cell lines were designated as 293 751 SWE and CHO 751 SWE, and were plated in Corning 96 well plates at 2.5×10^4 or 1×10^4 cells per well respectively in Dulbecco's minimal essential media plus 10% fetal bovine serum. Following overnight incubation at 37° C. in an incubator equilibrated with 10% carbon dioxide (CO2), the media were removed and replaced with 200 μL per well of media containing a test compound. After a two hour pretreatment period, the media were again removed and replaced with fresh media containing the test compound and the cells were incubated for an additional two hours.
Test compound stocks were prepared in DMSO such that at the final concentration used in the treatment, the concentration of DMSO did no exceed 0.5%. After treatment, plates were centrifuged in a Beckman GPR at 1200 rpm for five minutes at room temperature to pellet cellular debris from the conditioned media. From each well, 100 μL of conditioned media were transferred into an ELISA plate precoated with antibody 266 against βAP-13-28 (Seubert et al., supra.) and stored at 4° C. overnight. An ELISA assay employing labeled antibody 6C6 (against βAP-1-16) was run the next day to measure the amount of Aβ produced.
Cytotoxic effects of the test compounds were measured by a modification of the method of Hansen et al., (1989) J. Immun. Meth. 119:203-210. To the cells remaining in the tissue culture plate, was added 25 μL of a 3, (4,5-dimethylthiazol-2-yl)2,5-diphenyltetrazolium bromide (MTT) stock solution (5 mg/mL) to a final concentration of […]. Cells were incubated at 37° C. for one hour, and cellular activity was stopped by the addition of an equal volume of MTT lysis buffer (20% w/v sodium dodecylsulfate in 50% DMF, pH 4.7). Complete extraction was achieved by overnight shaking at room temperature. The difference in the OD562 nm and the OD650 nm was measured in a Molecular Devices UVmax microplate reader as an indicator of the cellular viability.
The results of the Aβ ELISA were fit to a standard curve and expressed as ng/mL Aβ peptide. In order to normalize for cytotoxicity, these Aβ results were divided by the MTT results and expressed as a percentage of the results from a drug -free control.
The test compounds were assayed for Aβ production inhibition activity in cells at […] using the test. The results presented in Table 1 are the mean and standard deviation of at least six replicate assays. IC50 means the concentration of test compound in micromoles/liter required to inhibit Aβ production by 50%.

Structure (SMILES)	Aβ Production Inhibition Activity, % inhibition @ 2.5 μg/ml
CC1(C)CC(C(=O)Nc2ccc(Cl)c(Cl)c2)CC(C)(C)N1 [Compound 231]	40-51%

Same assay, conditions: 5 μg/ml

Structure (SMILES)	inhibition at 5 µg/mL
Cc1ccc(C)c(COc2ccc(CN(O)C(=S)NCc3ccccc3)cc2)c1 [Compound 58]	32%
CC(C)(C)c1ccc(COc2cccc(CN(O)C(=S)NCc3ccc(Cl)c(Cl)c3)c2)cc1 [Compound 51]	38%
ON(Cc1ccc(-c2ccccc2)cc1)C(=S)NCc1ccccc1 [Compound 77]	2%
CCCCCCNC(=S)N(O)Cc1ccc(OCc2ccc(F)c(F)c2)cc1 [Compound 57]	4%

Same assay, conditions: 10 μg/ml, % of drug-free control, normalized to MTT

Structure (SMILES)	inhibition at 10 µg/mL	Aβ Production Inhibition Activity, % inhibition at 10 μg/ml
CSc1ccc(NC(=O)Nc2cccc(Cl)c2Cl)cc1 [Compound 158]	51%	–
COc1ccccc1CNC(=S)Nc1ccc(Oc2ccc(C(C)(C)C)cc2)cc1 [Compound 109]	37%	–
CC(NC(=S)NCc1ccccc1)c1cccc(Oc2ccccc2)c1 (centres unmarked) [Compound 47]	8%	–
CC(c1cccc(Oc2ccc(C(C)(C)C)cc2)c1)N(O)C(=S)NC(c1ccccc1)c1ccccc1 (centres unmarked) [Compound 14]	44%	–
CC(c1cccc(Oc2ccc(C(C)(C)C)cc2)c1)N(O)C(=O)NCc1ccccc1 (centres unmarked) [Compound 46]	68%	–
CCCCCCNC(=S)N(O)Cc1cccc(S(=O)(=O)c2ccc(C(C)(C)C)cc2)c1 [Compound 93]	–	13%
Cc1ccc(CNC(=S)N(O)C(C)c2cccc(Oc3ccc(C(C)(C)C)cc3)c2)cc1C (centres unmarked) [Compound 9]	62%	–
CC(C)(C)c1ccc(S(=O)(=O)c2cccc(CN(O)C(=S)NCc3ccccc3)c2)cc1 [Compound 92]	25%	–
CCCc1c(COc2ccc(CN(O)C(=S)NCc3ccccc3)cc2)ccc(C(C)=O)c1O [Compound 67]	42%	–
CSc1ccc(NC(=O)Nc2ccccc2Cl)cc1 [Compound 157]	41%	–
CCC(c1cccc(Oc2ccc(C(C)(C)C)cc2)c1)N(O)C(=S)Nc1cccc(C(F)(F)F)c1Cl (centres unmarked) [Compound 22]	10%	–
CC(c1cccc(Oc2ccc(C(C)(C)C)cc2)c1)N(O)C(=S)NCc1ccc2c(c1)OCO2 (centres unmarked) [Compound 15]	28%	–
CCCc1cc(C(C)(C)C)ccc1Oc1ccc(NC(=S)Nc2ccc(Cl)c(C(F)(F)F)c2)cc1 [Compound 193]	29%	–
CC(C)(C)c1ccc(-c2ccc(CN(O)C(=S)NCc3ccccc3)cc2)cc1 [Compound 81]	20%	–
O=C(Nc1ccc(Cl)c(Cl)c1)N1CCCCC1 [Compound 229]	–	8%
Cc1nnc(NC(=O)Nc2cccc(Cl)c2)s1 [Compound 248]	47%	–
COC(=O)c1ccc(NC(=O)Nc2ccc(Cl)c(C(F)(F)F)c2)cc1OC [Compound 165]	42%	–
Cc1ccc(CNC(=S)Nc2ccccc2Oc2ccc(C(C)(C)C)cc2)cc1C [Compound 184]	36%	–
CCCc1c(COc2ccc(CN(O)C(=S)Nc3ccc(Cl)c(C(F)(F)F)c3)cc2)ccc(C(=O)c2ccccc2)c1O [Compound 69]	14%	–
CC(c1cccc(Oc2ccc(C(C)(C)C)cc2)c1)N(C(=S)NCc1ccccc1)N(C)C (centres unmarked) [Compound 38]	32%	–
CC(C)(C)c1ccc(Oc2ccc(NC(=S)Nc3ccc(Cl)cc3)cc2)cc1 [Compound 191]	33%	–
CC(C)(C)c1cccc(Oc2ccc(NC(=S)Nc3ccccc3C(F)(F)F)cc2)c1 [Compound 189]	37%	–
CSc1ccc(NC(=O)Nc2ccc(Cl)cc2)cc1 [Compound 156]	13%	–

Same assay, conditions: 2 h pretreatment + 2 h incubation

Structure (SMILES)	IC50
CCCCOc1ccc(NC(=S)N(O)C(CC)c2cccc(Oc3ccc(C(C)(C)C)cc3)c2)cc1 (centres unmarked) [Compound 25]	16 µM
CC(C)(C)OC(=O)N1CCCC(CNC(=S)Nc2ccc(Oc3ccc(C(C)(C)C)cc3)cc2)C1 (centres unmarked) [Compound 125]	9.3 µM
CC(NC(=S)NCc1ccccc1)c1cccc(Oc2ccc(C(C)(C)C)cc2)c1 (centres unmarked) [Compound 39]	10.5 µM
CCCCCCNC(=S)N(O)C(C)c1cccc(Oc2ccc(C(C)(C)C)cc2)c1 (centres unmarked) [Compound 19]	11 µM
CCCCCCNC(=S)Nc1ccc(Oc2ccc(C(C)(C)C)cc2)cc1 [Compound 135]	10.6 µM
CC(C)(C)c1ccc(C(=O)Nc2cccc(CN(O)C(=S)NCc3ccccc3)c2)cc1 [Compound 84]	15 µM
CCCCCCSc1nnc(NC(=O)Nc2ccc(Cl)c(Cl)c2)s1 [Compound 239, 1-(5-hexylthio-1,3,4-thiadiazol-2-yl)-3-(3,4-dichlorophenyl)urea]	1.4 µM
CCCCCCNC(=S)NCc1cccc(Oc2ccc(C(C)(C)C)cc2)c1 [Compound 42]	17.2 µM
O=C(Nc1ccc(Cl)c(Cl)c1)c1nccs1 [Compound 243]	19.4 µM
CCC(c1cccc(Oc2ccc(C(C)(C)C)cc2)c1)N(O)C(=S)NCc1ccccc1 (centres unmarked) [Compound 20]	3.6 µM
CC(C)(C)c1ccc(SCc2ccc(CN(O)C(=S)Nc3ccc(Cl)c(C(F)(F)F)c3)cc2)cc1 [Compound 95]	4.6 µM
CCCCCCNC(=S)N(O)Cc1cccc(S(=O)(=O)c2ccc(C(C)(C)C)cc2)c1 [Compound 90]	22 µM
CC(C)(C)c1ccc(Oc2ccc(NC(=S)NCc3ccc(F)c(Cl)c3)cc2)cc1 [Compound 131]	5 µM
CC(C)(C)c1ccc(Oc2cccc(NC(=S)Nc3ccc(Cl)cc3)c2)cc1 [Compound 192]	8.8 µM
CSc1ccc(NC(=O)Nc2cccc(Cl)c2)cc1Br [Compound 162]	5.7 µM
CC(C)(C)c1cccc(Oc2ccc(NC(=S)Nc3cccc(C(F)(F)F)c3)cc2)c1 [Compound 176]	4.6 µM
CC(C)(C)c1ccc(Oc2cccc(NC(=S)NCc3ccccc3)c2)cc1 [Compound 186]	9 µM
CC(C)(C)c1ccc(Oc2ccc(NC(=S)NCc3ccc(Cl)cc3)cc2)cc1 [Compound 106]	9.2 µM
CC(C)(C)c1ccc(Sc2cccc(CN(O)C(=S)NCc3ccccc3)c2)cc1 [Compound 86]	5.9 µM

Structure (SMILES)	IC50
CC(C)(C)c1ccc(Oc2ccc(NC(=S)NCc3ccc(Br)cc3)cc2)cc1 [Compound 108]	8.9 µM
CC(C)(C)c1ccc([S+]([O-])c2cccc(CN(O)C(=S)NCc3ccccc3)c2)cc1 (centres unmarked) [Compound 91]	17.1 µM
CCCc1c(NC(=S)Nc2cccc(C(F)(F)F)c2)ccc(C(=O)c2ccccc2)c1O [Compound 201]	20 µM
CC(c1cccc(Oc2ccc(C(C)(C)C)cc2)c1)N(O)C(=S)Nc1cccc2ccccc12 (centres unmarked) [Compound 12]	> 20 µM
O=C(Nc1ccc(Cl)c(Cl)c1)Nc1cccc2ncccc12 [Compound 136]	17.8 µM
CC(C)(C)c1cccc(Oc2ccc(NC(=S)NCc3cccc(C(F)(F)F)c3)cc2)c1 [Compound 178]	8.6 µM
CC(C)(C)c1ccc(Oc2ccc(NC(=S)NCc3ccccc3)cc2)cc1 [Compound 115]	16.4 µM
CSc1ccc(NC(=O)Nc2ccc(Cl)c(Cl)c2)cc1 [Compound 154]	8.6 µM
CC(c1cccc(Oc2ccc(C(C)(C)C)cc2)c1)N(O)C(=S)NCc1ccc(F)cc1 (centres unmarked) [Compound 4]	11.1 µM
CCCc1cc(C(C)(C)C)ccc1Oc1ccc(NC(=S)NCc2ccccc2)cc1 [Compound 197]	4.6 µM
CCCCCCNC(=S)N(O)Cc1ccc(OCc2ccc(C(C)=O)c(O)c2CCC)cc1 [Compound 68]	19.7 µM
CC(C)(C)c1ccc(Oc2ccc(NC(=S)NCCCCc3ccccc3)cc2)cc1 [Compound 118]	16.4 µM
O=C(Nc1ccc(Sc2ccc(Cl)c(Cl)c2)cc1)Nc1ccc(Cl)c(Cl)c1 [Compound 145]	6.2 µM
CCCCCCNC(=S)N(O)C(C)c1cccc(NC(=O)c2ccc(C(C)(C)C)cc2)c1 (centres unmarked) [Compound 98]	13 µM
CC(C)(C)c1ccc(Oc2ccc(NC(=S)Nc3cccc(C(F)(F)F)c3)cc2)cc1 [Compound 175]	7.3 µM
COc1ccc(CNC(=S)N(O)C(C)c2cccc(Oc3ccc(C(C)(C)C)cc3)c2)cc1 (centres unmarked) [Compound 10]	> 20 µM
CC(C)(C)c1ccc(Oc2ccc(NC(=S)NCc3ccccn3)cc2)cc1 [Compound 120]	15.6 µM
CC(C)(C)c1ccc(Oc2ccc(NC(=S)NCc3ccc(F)cc3)cc2)cc1 [Compound 113]	5.6 µM
